System: hepatitis B virus
Test: Adefovir dipivoxil therapy of HBeAg positive chronic hepatitis B patients (Cohort A)
Type: in vivo, human
Experimental: Patient cohort A: 49 HBeAg positive patients, all patients accepted therapy of adefovir dipivoxil (10 mg/day), for 96 weeks in total, and were follow-up visited for 12 weeks after stop of therapy.
The above patients before therapy all met the criteria of disease adaptable for therapy as recommended by the Guide of Clinical Management of Chronic Hepatitis B of APASL: HBsAg was positive for consecutive 1 year or more, HBeAg was positive and anti-HBe was negative, serum ALT level was higher than 2 times of ULN; the patients were chosen to exclude possibility of having accompanied infection of hepatitis C virus (HCV), human immunodeficiency virus (HIV), hepatitis D virus (HDV), hepatitis E virus (HEV), and have no clinical medicine evidence of having accompanied autoimmune or metabolic liver diseases.
It was performed according to the method described in section 4.2 of Example 4.
It was performed according to the method described in section 4.3 of Example 4.
Main therapeutic end was defined when HBeAg seroconversion occurred at follow-up visit end.
All statistic methods were performed according to those described in Example 4.

## CC(C)(C)C(=O)OCOP(=O)(COCCn1cnc2c(N)ncnc21)OCOC(=O)C(C)(C)C [adefovir dipivoxil]
108 weeks versus therapy end (96 weeks)
  average increase (bounce) of serum anti-HBc level after therapy: 0.29 log10 IU/ml
HBc-High group (baseline anti-HBc ≥29000 IU/ml, n=16)
  decrease of average HBV DNA level at follow-up end versus before therapy: 3.48±2.24 log10 copies/mL
HBc-Low group (baseline anti-HBc <29000 IU/ml, n=33)
  decrease of average HBV DNA level at follow-up end versus before therapy: 1.69±2.05 log10 copies/mL
All 49 patients, 10 mg/day for 96 weeks, follow-up 12 weeks after stop
  therapeutic effective rate (HBeAg seroconversion at follow-up visit end): 18.4%
Baseline anti-HBc 9000-29000 IU/ml (n=19)
  response rate (HBeAg seroconversion after therapy): 10.5%
Baseline anti-HBc <9000 IU/ml (16 patients as printed)
  patients with HBeAg seroconversion after therapy: none
Baseline anti-HBc ≥29000 IU/ml, three-group analysis
  response rate (HBeAg seroconversion after therapy): 43.8%
Baseline to 60 weeks after beginning of therapy
  decline of average serum anti-HBc level per 12 weeks: 0.20±0.05 log10 IU/mL
Cutoff 29000 IU/ml baseline anti-HBc
  ratio of occurrence rates (Risk Ratio, RR) of HBeAg seroconversion between high and low anti-HBc groups: 7.22
Patients with baseline anti-HBc greater than 29000 IU/ml (n=16)
  effective rate (HBeAg seroconversion at follow-up visit end): 43.8%
Patients with baseline anti-HBc less than 29000 IU/ml (n=33)
  effective rate (HBeAg seroconversion at follow-up visit end): 6.1%

Source: US9952217B2, “Anti-HBc quantitative detection method and uses thereof in monitoring and controlling disease progression of chronic hepatitis B patient and in predicting therapeutic effect” (priority 2012, dated 2018)
